# Patent US20230363382A1, “COMBINATIONS OF TRIAZINONE HERBICIDES WITH SAFENERS” (priority 2020, published 2023)
# Read-outs that look alike come from different tables or passages of the source.
# Columns and labels:
# Conditions in all cases: Metribuzin 840 g ai/ha alone, soil spray
# Ipomoea hederacea = assay: % weed control in Soybean crop; assay type: in vivo
# Method: (§1) Experiments were carried out to evaluate the phytotoxicity, effect on plant height and effect on number of plants standing after treatments with combinations of one or more triazinone herbicides with one or more safeners.
# (§2) Application method was spray and applications were made to soil.
# Soybean plants = assay: effect on number of standing Soybean plants; assay type: in vivo
# Method: as §1, §2
# Soybean crop [1] = assay: effect on plant height of Soybean crop; assay type: in vivo
# Method: as §1, §2
# Soybean crop [2] = system: Soybean crop
# Method: as §1, §2
compound,measurement,setting,value
"CSc1nnc(C(C)(C)C)c(=O)n1N [Metribuzin, 4-amino-6-tert-butyl-4,5-dihydro-3-methylthio-1,2,4-triazin-5-one]",% Weed Control 7 DAA,Ipomoea hederacea; Table 1 treatment set,60.0%
same,% Weed Control 7 DAA,Ipomoea hederacea; Table 2 treatment set,72.5%
same,% Weed Control 14 DAA,Ipomoea hederacea; Table 1 treatment set,92.5%
same,% Weed Control 14 DAA,Ipomoea hederacea; Table 2 treatment set,96.3%
same,% Weed Control 21 DAA,Ipomoea hederacea; Table 1 treatment set,98.8%
same,% Weed Control 21 DAA,Ipomoea hederacea; Table 2 treatment set,96.8%
same,% Weed Control 28 DAA,Ipomoea hederacea; Table 1 treatment set,95.0%
same,% Weed Control 28 DAA,Ipomoea hederacea; Table 2 treatment set,98.8%
same,% Weed Control 35 DAA,Ipomoea hederacea; Table 1 treatment set,96.3%
same,% Weed Control 35 DAA,Ipomoea hederacea; Table 2 treatment set,98.8%
same,Number of plants standing 28 DAA,Soybean plants; Table 1 treatment set,3.0
same,Number of plants standing 28 DAA,Soybean plants; Table 2 treatment set,3.8
same,Plant height 28 DAA,Soybean crop [1]; Table 1 treatment set,5.80
same,Plant height 28 DAA,Soybean crop [1]; Table 2 treatment set,7.05
same,% Phytotoxicity 7 DAA,Soybean crop [2]; Table 1 treatment set,6.3%
same,% Phytotoxicity 7 DAA,Soybean crop [2]; Table 2 treatment set,7.5%
same,% Phytotoxicity 21 DAA,Soybean crop [2]; Table 1 treatment set,65.0%
same,% Phytotoxicity 21 DAA,Soybean crop [2]; Table 2 treatment set,62.5%
same,% Phytotoxicity 35 DAA,"Soybean crop [2]; 35 DAA, Table 1 treatment set",81.3%
